From paper PMC10022191, “Safety, tolerability, pharmacokinetics, and antiviral activity of the novel core protein allosteric modulator ZM-H1505R (Canocapavir) in chronic hepatitis B patients: a randomized multiple-dose escalation trial” (BMC Medicine, 2023)

Assays:
[1] = phase 1b trial: plasma pharmacokinetics in CHB patients; details: for mean plasma trough concentration relative to protein-binding adjusted HBV DNA EC50 (135 ng/mL): day 28
Procedure: Blood samples for Canocapavir PK analysis were collected at different time points, and were collected and placed into a vacutainer with an anticoagulant (K2-EDTA), followed by centrifugation at 2,000 g and 4 °C for 10 min to collect the plasma.
All of these parameters in the treatment cohorts were analyzed using the descriptive statistics methods provided by SAS 9.1 software (Cary, NC, USA). The dose proportionality of Canocapavir was evaluated by the power model and the linear fixed-effect model. Descriptive analysis was used for safety, tolerability and antiviral activity indexes. Please see Additional file 1 for the detailed methodology.
The concentration of Canocapavir was determined using a validated high-performance liquid chromatography-tandem mass spectrometry method of FRONTAGE Laboratories (Shanghai, China), with a detection range of 10–10,000 ng/mL.
Blood samples for Canocapavir PK analysis were collected at different time points, including preadministration (30 min predosing) and 0.5, 1, 2, 3, 4, 6, 8, 12, and 24 h postdosing on day 1; predosing on days 8, 15, 22, 27, and 28; and 0.5, 1, 2, 3, 4, 6, 8, 12, 24, 48, and 72 h postdosing on day 28.

genotype D HBV = test: primary human hepatocyte (PHH) assay, extracellular HBV DNA by qPCR
Procedure: To determine the anti-HBV activity of ZM-H1505R, the primary human hepatocyte (PHH) assay was performed in vitro. One day after infection with genotype D HBV, ZM-H1505R was added to the culture medium of PHH. The culture medium supplemented with ZM-H1505R was changed every two days. The culture supernatants were collected, of which the extracellular HBV DNA content was measured by qPCR.

[2] = cited from earlier work

SMILES: O=C1CO[C@H](c2cn(-c3ccc(Br)cc3)nc2-c2ccc(F)cc2)N1CCc1ccc2[nH]c(=O)[nH]c2c1 [Canocapavir]
- mean plasma trough concentration relative to protein-binding adjusted HBV DNA EC50 (135 ng/mL) ([1]; 100 mg q.d.): 7.0 fold
- mean plasma trough concentration relative to protein-binding adjusted HBV DNA EC50 (135 ng/mL) ([1]; 200 mg q.d.): 14.6 fold
- power model slope (regression coefficient) of exposure (Cmax and AUC) vs dose ([1]; human, in vivo): 0.82–1.14
- time to maximum concentration (Tmax) ([1]; human, in vivo): 2 to 3 h
- AUC0-∞ ([1]; human, in vivo, 50 mg): 25,625.6 ± 15,804.7 h·ng/mL
- CL/F ([1]; human, in vivo, 50 mg): 3.4 ± 1.5 L/h
- Vz/F ([1]; human, in vivo, 50 mg): 61.4 ± 23.0 L
- t1/2 ([1]; human, in vivo, 50 mg): 13.0 ± 1.9 h
- AUC0-∞ ([1]; human, in vivo, 100 mg): 59,399.0 ± 18,159.0 h·ng/mL
- CL/F ([1]; human, in vivo, 100 mg): 2.5 ± 0.6 L/h
- Tmax ([1]; human, in vivo, 100 mg): 3.0 (2.0, 4.0) h
- Vz/F ([1]; human, in vivo, 100 mg): 42.3 ± 10.9 L
- t1/2 ([1]; human, in vivo, 100 mg): 12.1 ± 3.7 h
- AUC0-∞ ([1]; human, in vivo, 200 mg): 120,090.0 ± 57,318.9 h·ng/mL
- CL/F ([1]; human, in vivo, 200 mg): 3.3 ± 2.0 L/h
- Vz/F ([1]; human, in vivo, 200 mg): 73.6 ± 43.4 L
- mean t1/2 after the last dosage ([1]; human, in vivo, 200 mg): 12.1 to 15.6 h
- t1/2 ([1]; human, in vivo, 200 mg): 15.6 ± 2.3 h
- protein binding-adjusted HBV DNA EC50 (genotype D HBV; protein-binding adjusted): 0.135 µg/mL
- protein binding-adjusted HBV DNA EC90 (genotype D HBV; protein-binding adjusted): 0.937 µg/mL
- EC50 (genotype D HBV; read-out: EC50, inhibition of extracellular HBV DNA generation, PHH infected with genotype D HBV): 12.3 nM
- EC90 (genotype D HBV; read-out: EC90, inhibition of extracellular HBV DNA generation, PHH infected with genotype D HBV): 83.3 nM
- accumulation rate after multiple administration ([2]; healthy subjects): 1.7–2.3
- dose proportionality of mean plasma AUC and Cmax ([2]; healthy subjects): increased in a dose-proportional manner
- food effect on drug absorption ([2]; healthy subjects): Food had an effect on the drug absorption
- half-life after multiple administration ([2]; healthy subjects): 12.2 to 21.7 h
- margin between plasma exposure and anti-HBV activity EC50 in vitro ([2]; healthy subjects): 11.2–37.5 fold
- most common AE ([2]; healthy subjects): increased ALT
- safety and tolerability in healthy subjects ([2]; single doses 25–450 mg, multiple doses 75–300 mg q.d. for 14 days): safe and well tolerated
